The target in assay [1] is T1, MtrC (Shewanella oneidensis, UniProt Q8EG34).
T1 construct: recombinant soluble decaheme cytochrome from E. coli JM109(DE3) periplasm with pEC86; stop codon after the gene removes V5 and His6 tags; C-terminus encoded by primer HTKVKM
Kind of assay: 1H NMR titration (heme methyl shifts). Conditions: oxidized protein; 20 mM potassium phosphate pH 7.6, 100 mM KCl, 2H2O, 25 °C. The format is binding.

The target in assay [2] is T2, OmcA (Shewanella oneidensis, UniProt Q8EG33).
T2 construct: recombinant soluble decaheme cytochrome expressed in S. oneidensis MR-1 from pBAD202/D-TOPO; stop codon after the gene removes V5 and His6 tags; C-terminus encoded by primer ...AIDGSTR N not altered (ends MEAHGN)
T2 sequence (Q8EG33 entry or part of it): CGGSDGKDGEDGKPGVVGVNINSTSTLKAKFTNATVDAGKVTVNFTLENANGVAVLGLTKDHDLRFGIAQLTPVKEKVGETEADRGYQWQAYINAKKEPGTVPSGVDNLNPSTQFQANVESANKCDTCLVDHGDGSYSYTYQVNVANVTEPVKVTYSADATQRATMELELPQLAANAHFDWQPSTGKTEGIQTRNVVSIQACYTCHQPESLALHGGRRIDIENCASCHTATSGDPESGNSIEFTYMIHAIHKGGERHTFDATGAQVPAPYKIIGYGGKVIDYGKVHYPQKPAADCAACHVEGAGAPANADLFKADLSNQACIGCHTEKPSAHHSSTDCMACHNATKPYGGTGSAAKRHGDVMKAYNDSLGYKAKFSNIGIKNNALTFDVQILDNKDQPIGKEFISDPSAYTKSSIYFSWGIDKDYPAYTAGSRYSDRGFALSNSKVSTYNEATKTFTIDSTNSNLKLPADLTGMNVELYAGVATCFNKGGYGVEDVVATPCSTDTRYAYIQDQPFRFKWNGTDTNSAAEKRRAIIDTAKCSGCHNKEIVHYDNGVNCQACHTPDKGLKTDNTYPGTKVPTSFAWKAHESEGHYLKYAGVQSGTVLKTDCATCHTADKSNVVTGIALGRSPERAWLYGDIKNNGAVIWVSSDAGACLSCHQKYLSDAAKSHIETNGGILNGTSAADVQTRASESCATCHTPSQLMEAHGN
Kind of assay: 1H NMR titration (heme methyl shifts). Conditions: oxidized protein; 20 mM potassium phosphate pH 7.6, 100 mM KCl, 2H2O, 25 °C. In kind it is binding.

The next assay has as its target T3, UndA (Shewanella sp. HRCR_06, UniProt F8UWD6).
T3 construct: recombinant soluble undecaheme cytochrome from E. coli JM109(DE3) periplasm with pEC86; stop codon after the gene removes V5 and His6 tags; C-terminus encoded by primer GVDKVHPVKY
The assay can be described thus: 1H NMR titration (heme methyl shifts). The format is binding. The settings on record: oxidized protein; 20 mM potassium phosphate pH 7.6, 100 mM KCl, 2H2O, 25 °C.

The target of another assay is T4, MtrF (Shewanella oneidensis, UniProt Q8EG32).
T4 construct: recombinant soluble decaheme cytochrome expressed in S. oneidensis MR-1; stop codon after the gene removes V5 and His6 tags
T4 sequence (Q8EG32 24-639): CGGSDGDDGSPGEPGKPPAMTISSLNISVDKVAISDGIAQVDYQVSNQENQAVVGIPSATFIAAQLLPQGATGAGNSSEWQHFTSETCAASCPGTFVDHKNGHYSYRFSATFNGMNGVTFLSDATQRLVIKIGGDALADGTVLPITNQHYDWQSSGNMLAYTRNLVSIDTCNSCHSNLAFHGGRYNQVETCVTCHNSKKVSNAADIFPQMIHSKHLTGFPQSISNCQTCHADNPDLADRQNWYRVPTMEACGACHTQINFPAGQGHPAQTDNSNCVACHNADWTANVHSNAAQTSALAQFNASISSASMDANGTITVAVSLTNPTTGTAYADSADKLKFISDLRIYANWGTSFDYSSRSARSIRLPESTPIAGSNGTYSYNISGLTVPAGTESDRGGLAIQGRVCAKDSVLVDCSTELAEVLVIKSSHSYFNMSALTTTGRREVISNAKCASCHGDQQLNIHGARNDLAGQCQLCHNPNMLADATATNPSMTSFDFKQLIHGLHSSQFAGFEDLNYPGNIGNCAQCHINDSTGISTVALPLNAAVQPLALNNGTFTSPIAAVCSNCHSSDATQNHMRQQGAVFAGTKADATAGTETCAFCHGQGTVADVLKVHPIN
The assay can be described thus: stopped-flow oxidation of reduced cytochrome at […] nm. Conditions: electron acceptor; 11 μM PMS, 0.31 μM protein, pH 7.6, 25 °C, anaerobic. In kind it is biochemical.

Assay [3] deals with T2, OmcA. Kind of assay: […] NMR titration. Conditions: read-out: βd. The format is binding.
For assay [4], the target named is T1, MtrC. The assay can be described thus: […] NMR titration. In kind it is binding. The settings on record: read-out: βd.

T1 sequence (Q8EG34 entry or part of it): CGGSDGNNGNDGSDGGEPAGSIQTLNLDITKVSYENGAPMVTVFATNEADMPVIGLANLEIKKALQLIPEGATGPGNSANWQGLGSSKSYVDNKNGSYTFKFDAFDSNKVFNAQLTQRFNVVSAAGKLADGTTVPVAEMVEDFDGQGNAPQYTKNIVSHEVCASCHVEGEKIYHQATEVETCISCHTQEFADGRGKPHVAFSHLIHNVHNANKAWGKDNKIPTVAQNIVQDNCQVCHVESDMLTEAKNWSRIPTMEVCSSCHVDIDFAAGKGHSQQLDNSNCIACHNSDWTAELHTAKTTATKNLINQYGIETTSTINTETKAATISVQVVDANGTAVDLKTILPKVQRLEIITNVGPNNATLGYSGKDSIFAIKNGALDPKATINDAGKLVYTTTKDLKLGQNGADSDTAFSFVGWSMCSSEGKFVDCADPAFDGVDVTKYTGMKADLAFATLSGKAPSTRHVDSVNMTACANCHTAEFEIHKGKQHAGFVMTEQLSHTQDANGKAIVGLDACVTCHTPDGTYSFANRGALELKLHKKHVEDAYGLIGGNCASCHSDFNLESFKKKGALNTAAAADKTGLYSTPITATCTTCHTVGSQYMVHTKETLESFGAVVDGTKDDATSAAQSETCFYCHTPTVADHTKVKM
T3 sequence (F8UWD6 entry or part of it): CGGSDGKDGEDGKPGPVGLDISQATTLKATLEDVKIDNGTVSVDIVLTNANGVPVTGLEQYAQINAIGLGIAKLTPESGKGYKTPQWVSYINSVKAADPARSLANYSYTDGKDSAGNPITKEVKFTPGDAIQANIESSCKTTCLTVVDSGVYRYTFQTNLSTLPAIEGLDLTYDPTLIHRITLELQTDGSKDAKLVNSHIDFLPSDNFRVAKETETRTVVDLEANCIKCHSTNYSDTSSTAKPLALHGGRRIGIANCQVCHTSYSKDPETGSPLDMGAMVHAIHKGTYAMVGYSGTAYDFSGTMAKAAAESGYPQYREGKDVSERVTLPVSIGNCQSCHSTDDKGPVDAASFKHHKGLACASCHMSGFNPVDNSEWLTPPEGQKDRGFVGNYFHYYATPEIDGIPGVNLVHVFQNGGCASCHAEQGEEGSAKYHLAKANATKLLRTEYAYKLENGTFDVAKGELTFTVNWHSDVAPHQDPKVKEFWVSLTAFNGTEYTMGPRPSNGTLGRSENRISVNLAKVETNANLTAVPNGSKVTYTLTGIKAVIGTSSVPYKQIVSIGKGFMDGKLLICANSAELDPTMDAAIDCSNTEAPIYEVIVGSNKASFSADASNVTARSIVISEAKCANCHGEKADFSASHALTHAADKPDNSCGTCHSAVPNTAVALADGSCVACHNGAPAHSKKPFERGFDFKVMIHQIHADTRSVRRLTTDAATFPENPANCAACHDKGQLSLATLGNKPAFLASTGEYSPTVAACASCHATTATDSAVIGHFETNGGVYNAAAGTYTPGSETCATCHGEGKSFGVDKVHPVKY

Consider `Cc1cc2nc3c(=O)[nH]c(=O)nc-3n(C[C@H](O)[C@H](O)[C@H](O)CO)c2cc1C` [RF, Riboflavin], for which the “1H NMR titration (heme methyl shifts)” value at MtrC [1] was “only promoted significant changes in the heme signals of OmcA and MtrC”; on OmcA [2] it was “RF, FMN, and PMS, only promoted significant changes in the heme signals of OmcA”.

In the case of `O=C1c2ccc(S(=O)(=O)O)cc2C(=O)c2ccc(S(=O)(=O)O)cc21` [AQDS, Anthraquinone 2,6-disulfonate], the “1H NMR titration (heme methyl shifts)” value is “the addition of AQDS promoted noticeable spectral changes in OmcA, MtrC, and UndA” on MtrC [1]; “the addition of AQDS promoted noticeable spectral changes in OmcA, MtrC, and UndA” at UndA; “the addition of AQDS promoted noticeable spectral changes in OmcA, MtrC, and UndA” at OmcA [2].

As for `C[n+]1c2ccccc2nc2ccccc21` [PMS, Phenazine methosulfate], the “stopped-flow oxidation of reduced cytochrome at 552 nm” value on MtrF is reported as “PMS oxidized all the cytochromes at a rate too fast to be measured”. Besides, the “1H NMR titration (heme methyl shifts)” value on MtrC [1] is “only promoted significant changes in the heme signals of OmcA and MtrC”; on OmcA [2] it was “RF, FMN, and PMS, only promoted significant changes in the heme signals of OmcA”.

`Cc1cc2nc3c(=O)[nH]c(=O)nc-3n(C[C@H](O)[C@H](O)[C@H](O)COP(=O)(O)O)c2cc1C` [FMN, Flavin mononucleotide]: the Kd on OmcA [3] came to 29 µM; on MtrC [4], 255 µM.

Values taken from article PMC4073285, “Exploring the molecular mechanisms of electron shuttling across the microbe/metal space” (Frontiers in Microbiology, 2014).
